Results taken from ChEMBL document CHEMBL4673289, “Design, synthesis and biological evaluation of imidazolopyridone derivatives as novel BRD4 inhibitors” (Bioorg Med Chem, 2021).
Active and inactive are the calls of the source. The rule behind the calls is not given here.

Assays:
[1] = system: BXPC-3; test: Antiproliferative activity against human BXPC-3 cells assessed as cell growth inhibition at 2 uM measured after 48 to 72 hrs by MTT assay relative to control; type: functional; details: time 48-72 hrs, read-out: GI
[2] = target: T1, Bromodomain-containing protein 4 (Homo sapiens, UniProt O60885); test: Inhibition of BRD4 (unknown origin) at 1 uM preincubated for 15 mins followed by substrate addition and measured after 1 hr by AlphaScreen assay relative to control; details: time 75.0 min
[3] = target: T1, Bromodomain-containing protein 4; test: Inhibition of BRD4 (unknown origin) preincubated for 15 mins followed by substrate addition and measured after 1 hr by AlphaScreen assay relative to control
[4] = system: SMMC-7721; test: Antiproliferative activity against human SMMC-7721 cells assessed as cell growth inhibition at 2 uM measured after 48 to 72 hrs by MTT assay relative to control; type: functional; details: time 48-72 hrs, read-out: GI
[5] = system: PANC-1; test: Antiproliferative activity against human PANC-1 cells assessed as cell growth inhibition at 2 uM measured after 48 to 72 hrs by MTT assay relative to control; type: functional; details: time 48-72 hrs, read-out: GI
[6] = system: Panc02; test: Antitumor activity against mouse Panc02 allografted in BALB/c mouse assessed as reduction in tumor weight at 100 mg/kg, ip administered every day for 20 days relative to control; type: functional; details: 480 h, time 20 day, read-out: TGI
[7] = system: Mus musculus; test: Downregulation of Ki67 expression in BALB/c mouse allografted with mouse Panc02 cells […] at 100 mg/kg, ip administered every day measured after 20 days by immunohistochemical analysis; type: functional, organism-based; details: time 20.0 day
[8] = system: Mus musculus; test: Upregulation of caspase 3 in BALB/c mouse allografted with mouse Panc02 cells […] at 100 mg/kg, ip administered every day measured after 20 days by immunohistochemical analysis; type: functional, organism-based; details: time 20.0 day
[9] = Toxicity in BALB/c mouse allografted with mouse Panc02 cells assessed as effect on body weight at 100 mg/kg, ip administered every day measured after 19 days; type: organism-based; details: in vivo, 456 h, time 19 day

| Structure (SMILES) | inhibition of growth at 2 µM [1] [%] | inhibition [2] [%] | IC50 [3] [nM] | inhibition of growth at 2 µM [4] [%] | inhibition of growth at 2 µM [5] [%] | further results |
| --- | --- | --- | --- | --- | --- | --- |
| CCS(=O)(=O)c1ccc(Oc2ccc(C)c(-c3c(C)noc3C)c2)c(-c2cn(C)c(=O)c3cncn23)c1 | 35.8 | 96.5 | 254 | 19.9 | 23.7 | – |
| CCS(=O)(=O)c1ccc(Oc2cc(-c3c(C)noc3C)ccc2C)c(-c2cn(C)c(=O)c3cncn23)c1 | 30.2 | 95.2 | 261 | 11.4 | 20.6 | – |
| Cc1sc2c(c1C)C(c1ccc(Cl)cc1)=N[C@@H](CC(=O)C(C)(C)C)c1nnc(C)n1-2 | 31.1 | 99.5 | 88 | 12.2 | 17.1 | – |
| CCS(=O)(=O)c1ccc(Oc2ccc(F)c(-c3c(C)noc3C)c2)c(-c2cn(C)c(=O)c3cncn23)c1 | – | 78.1 | – | – | – | – |
| CCS(=O)(=O)c1ccc(Oc2cccc(-c3c(C)noc3C)c2)c(-c2cn(C)c(=O)c3cncn23)c1 | 41.2 | 93.2 | 435 | 18.2 | 21.6 | – |
| CCS(=O)(=O)c1ccc(Oc2cc(-c3c(C)noc3C)ccc2C#N)c(-c2cn(C)c(=O)c3cncn23)c1 | – | 31.2 | – | – | – | – |
| CCS(=O)(=O)c1ccc(Oc2cc(F)c(F)c(F)c2)c(-c2cn(C)c(=O)c3cncn23)c1 | – | 40.1 | – | – | – | – |
| CCS(=O)(=O)c1ccc(Oc2cccc(-c3c(C)noc3C)n2)c(-c2cn(C)c(=O)c3cncn23)c1 | – | 70.2 | – | – | – | – |
| Cc1noc(C)c1-c1cccc(Oc2ccc(S(C)(=O)=O)cc2-c2cn(C)c(=O)c3cncn23)c1 | – | 62.7 | – | – | – | – |
| CCS(=O)(=O)c1ccc(Oc2cc(-c3c(C)noc3C)ccc2F)c(-c2cn(C)c(=O)c3cncn23)c1 | 33.2 | 99.5 | 152 | 21.3 | 19.6 | – |
| CCS(=O)(=O)c1ccc(Oc2cc(-c3c(C)noc3C)ccc2Cl)c(-c2cn(C)c(=O)c3cncn23)c1 | – | 86.3 | – | – | – | – |
| Nc1ccn([C@@H]2O[C@H](CO)[C@@H](O)C2(F)F)c(=O)n1 [GEMCITABINE] | – | – | – | – | – | inhibition in vivo at 100 mg/kg [6]: 70%; Activity [7]: Active; Activity [8]: Active; Activity [9]: Non-Toxic |
| CCS(=O)(=O)c1ccc(Oc2cc(-c3c(C)noc3C)ccc2OC)c(-c2cn(C)c(=O)c3cncn23)c1 | 42.2 | 99.9 | 56 | 18.4 | 16.2 | – |
| CCS(=O)(=O)c1ccc(Oc2ccc(Cl)c(-c3c(C)noc3C)c2)c(-c2cn(C)c(=O)c3cncn23)c1 | – | 64.9 | – | – | – | – |
